Data published in patent publication US5506243A, “Sulfonamide derivatives” (Mitsubishi Kasei Corporation, priority 1993, dated 1996).

Target: T1, m-Calpin (Rattus norvegicus, UniProt Q07009)
T1 construct: m-Calpin was purified from brains of rats; from tissue; host or cells: rat brain
T1 sequence (Q07009 1-700): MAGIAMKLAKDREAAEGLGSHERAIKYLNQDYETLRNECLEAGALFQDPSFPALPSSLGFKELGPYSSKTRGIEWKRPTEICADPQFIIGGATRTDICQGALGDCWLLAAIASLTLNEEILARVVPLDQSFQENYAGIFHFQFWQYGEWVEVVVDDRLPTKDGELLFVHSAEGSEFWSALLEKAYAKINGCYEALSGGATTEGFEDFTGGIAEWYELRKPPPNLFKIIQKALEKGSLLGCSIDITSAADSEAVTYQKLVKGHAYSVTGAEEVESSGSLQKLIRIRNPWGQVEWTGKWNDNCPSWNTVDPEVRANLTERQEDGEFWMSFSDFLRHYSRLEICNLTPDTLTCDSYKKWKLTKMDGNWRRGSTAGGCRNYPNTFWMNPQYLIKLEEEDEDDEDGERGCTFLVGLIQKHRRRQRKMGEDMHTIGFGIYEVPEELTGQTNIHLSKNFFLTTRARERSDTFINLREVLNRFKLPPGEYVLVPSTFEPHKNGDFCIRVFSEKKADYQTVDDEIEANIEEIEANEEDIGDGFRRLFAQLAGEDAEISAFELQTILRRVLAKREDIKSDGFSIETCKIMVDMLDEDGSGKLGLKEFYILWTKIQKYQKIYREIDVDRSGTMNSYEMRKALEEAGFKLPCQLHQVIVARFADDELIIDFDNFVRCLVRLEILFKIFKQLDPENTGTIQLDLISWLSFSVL
T1 sequence (Q64537 1-270 partner): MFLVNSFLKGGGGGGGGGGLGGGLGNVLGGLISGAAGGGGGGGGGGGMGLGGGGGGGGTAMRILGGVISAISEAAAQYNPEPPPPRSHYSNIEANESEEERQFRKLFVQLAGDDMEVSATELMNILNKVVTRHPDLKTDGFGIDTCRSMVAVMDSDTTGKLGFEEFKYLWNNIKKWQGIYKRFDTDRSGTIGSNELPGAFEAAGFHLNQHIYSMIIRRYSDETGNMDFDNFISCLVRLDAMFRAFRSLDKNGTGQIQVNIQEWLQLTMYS
Assay: Measurement of calpain inhibitory activity
Format: biochemical
Conditions: m-calpain purified from brains of rats
Protocol: Measurement of calpain inhibitory activity
For comparison, inhibitory activity of leupeptin (N-terminus is in the form of amide) and calpeptin (N-terminus is in the form of carbamate) was also measured.

| IC50 [µM] | Structure (SMILES) |
| --- | --- |
| 0.046 | CCCC[C@@H](C=O)NC(=O)[C@H](CC(C)C)NC(=O)OCc1ccccc1 [Calpeptin] |
| 0.0065 | CC(C)C[C@H](NS(=O)(=O)c1cccnc1)C(=O)N[C@H](C=O)C(C)C [Example 2, N-3-pyridylsulfonyl-L-leucyl-L-valinal] |
| 0.011 | CC(C)C[C@H](NS(=O)(=O)c1ccccc1)C(=O)N[C@H](C=O)C(C)C [Example 1, N-phenylsulfonyl-L-leucyl-L-valinal] |

| Structure (SMILES) | IC50 [µM] |
| --- | --- |
| CC(=O)N[C@@H](CC(C)C)C(=O)N[C@@H](CC(C)C)C(=O)N[C@H](C=O)CCCNC(=N)N [Leupeptin] | 0.36 |
